Reference: ChEMBL document CHEMBL1128655, “3-Fluoro-2-(4-methylpiperazin-1-yl)-5,12-dihydro-5-oxobenzoxazolo[3,2-a]quinoline-6-carboxylic acid: Synthesis and In vitro cytotoxic activity” (Bioorg Med Chem Lett, 1995)
In brackets after ≈: the same amount, converted by molar mass.

Assays:
Assay type in all cases: functional, cell-based
SNU1 = assay: In vitro cytotoxic activity against human tumor SNU 1 (stomach) cell line
SNU-354 = assay: In vitro cytotoxic activity against human tumor SNU 354 (liver) cell line
SNU-C4 = assay: In vitro cytotoxic activity against human tumor SNU C-4(colon) cell line
[1] = Homo sapiens, SNU1, read-out: IC50
[2] = Homo sapiens, SNU-354, read-out: IC50
[3] = Homo sapiens, SNU-C4, read-out: IC50

Compound	IC50 (SNU1; [1])	IC50 (SNU-354; [2])	IC50 (SNU-C4; [3])	IC50 (SNU1; snu1)	IC50 (SNU-354; snu-354)	IC50 (SNU-C4; snu-c4)
O=C(O)c1c(=O)c2cc(F)c(N3CCNCC3)cc2n2c1oc1ccccc12	15.3 µg/mL (≈ 40.1 µM)	19.8 µg/mL (≈ 51.9 µM)	13.4 µg/mL (≈ 35.1 µM)			
CN1CCN(c2cc3c(cc2F)c(=O)c(C(=O)O)c2oc4ccccc4n23)CC1.Cl	2 µg/mL	1.9 µg/mL	1.8 µg/mL			
CC(=O)N1CCN(c2cc3c(cc2F)c(=O)c(C(=O)O)c2oc4ccccc4n23)CC1	> 200 µg/mL	> 200 µg/mL	> 200 µg/mL			
COc1cccc2c1C(=O)c1c(O)c3c(c(O)c1C2=O)C[C@@](O)(C(=O)CO)C[C@@H]3O[C@H]1C[C@H](N)[C@H](O)[C@H](C)O1 [DOXORUBICIN]	< 0.5 µg/mL	< 0.5 µg/mL	< 0.5 µg/mL			
CISPLATIN				1.4 µg/mL	4.1 µg/mL	2.8 µg/mL
